US20190177279A1, “CARBOXYLIC ACID AROMATIC 1,2-CYCLOPROPYLAMIDES” (Bayer Pharma Aktiengesellschaft, priority 2017, published 2019)

Each molecule was assayed against T1, human B1 receptor (Homo sapiens, UniProt P46663) (assay: Calcium flux assay (FLIPR) with recombinant CHO-K1 cells expressing human B1 receptor). Details: absence of 0.1% BSA in assay buffer, agonist Lys-(Des-Arg)-Bradykinin, read-out: hB1 free IC50.
T1 construct: host or cells: CHO-K1
T1 sequence (P46663 1-353): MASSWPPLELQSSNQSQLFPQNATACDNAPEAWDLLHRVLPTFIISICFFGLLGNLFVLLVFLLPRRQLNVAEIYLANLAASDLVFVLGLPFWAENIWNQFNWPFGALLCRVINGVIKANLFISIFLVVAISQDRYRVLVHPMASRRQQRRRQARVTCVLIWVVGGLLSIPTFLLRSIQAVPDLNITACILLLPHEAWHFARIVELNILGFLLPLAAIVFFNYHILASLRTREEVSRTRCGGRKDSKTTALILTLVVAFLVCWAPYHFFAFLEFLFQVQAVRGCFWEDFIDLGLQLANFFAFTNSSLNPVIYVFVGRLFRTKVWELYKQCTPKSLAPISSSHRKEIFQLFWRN
Assay type: cell-based
Experimental: The potency to inhibit the Bradykinin B1 receptors was determined for the example compounds of this invention in a cell-based fluorescent calcium-mobilisation assay. The assay measures the ability of example compounds to inhibit Bradykinin B1 receptor agonist-induced increase of intracellular free Ca^2+ in the cell line expressing B1 receptor. Specifically, calcium indicator—loaded cells are pre-incubated in the absence or presence of different concentrations of example compounds followed by the stimulation with a selective B1 receptor agonist peptide. The change of the intracellular Ca^2+ concentration is monitored with a fluorescent plate reader FLIPR (Molecular Devices).
Calcium flux Assay (FLIPR) with recombinant cells for Bradykinin B1 receptor antagonist, either in the presence (hB1 IC50) or absence (hB1 free IC50) of 0.1% BSA in assay buffer
CHO-K1 cell line expressing human B1 receptor was purchased from Euroscreen (Gosselies, Belgium, with reference name hB1-D1). The cells were grown in Nutrient Mixture Ham's F12 (Sigma) containing 10% Foetal bovine serum (Sigma) and 400 μg/mL G418 (Sigma), 5 μg/mL puromycin (Sigma).
For the calcium flux assay, 80% confluent cells were detached from the culture vessels with Versene (Gibco), and seeded into 384-well plates (Cell binding Surface; Corning, N.Y.; #3683) at a density of 15,000 cells per well. Cells were seeded in a volume of 50 μL in medium without antibiotics and incubated overnight in a humidified atmosphere with 5% CO2 at 37° C. […] The calcium indicator loaded cells were incubated at 37° C. for 2 hrs. Extracellular dye was then removed and each well was filled with 45 μL of assay buffer. Cell plates were kept in dark until used. Example compounds were assayed at 8 concentrations in triplicate. Serial 10-fold dilutions in 100% DMSO were made at a 100-times higher concentration than the final concentration, and then diluted 1:10 in assay buffer. 5 μL of each diluted compound was added to the well of cell plates (yielding final concentration with 1% DMSO), and incubated for 30 min at 28° C. before the addition of B1 receptor agonist on the FLIPR instrument.
Agonist plates contained the agonist Lys-(Des-Arg)-Bradykinin (Bachem, Brackley) at 3.5×EC90 in assay buffer with 1% DMSO. The addition of agonist 20 μl per well to the assay plate was carried out on the FLIPR instrument while continuously monitoring Ca^2+-dependent fluorescence at 538 nm. A peptide antagonist Lys-(Des-Arg-Leu)-Bradykinin (Bachem, Brackley) at 20 µM was used to determine the full inhibition as control.
Peak fluorescence was used to determine the response to agonist obtained at each concentration of example compound by the following equation:
% Response=100*(RFU(example compound)−RFU(control)/(RFU(DMSO)−RFU(control)) • Control=full inhibition by the peptide antagonist Lys-(Des-Arg-Leu)-Bradykinin at 20 μM
The response values were plotted against the logarithm of the compound concentrations. The compounds were tested in triplicates per plate and mean values were plotted in Excel XLfit to determine IC50 values, percentage of maximal inhibition and the Hill slopes.

Row | Molecule | IC50
1 | CCC(F)(F)c1ccc(-c2ccc(NC(=O)C3CC3c3ccc(Cl)cc3)cc2C(=O)O)cn1 (racemic) [Example 23, 5-({[2-(4-Chlorophenyl)cyclopropyl]carbonyl}amino)-2-[6-(1,1-difluoropropyl)pyridin-3-yl]benzoic acid] | 0.309 µM
2 | CC(C)(C)c1ccn(-c2ccc(NC(=O)C3CC3c3ccc(Cl)cc3)cc2C(=O)O)n1 (racemic) [Example 14, 2-(3-tert-Butyl-1H-pyrazol-1-yl)-5-({[2-(4-chlorophenyl)cyclopropyl]carbonyl}amino)benzoic acid] | 2.22 µM
3 | O=C(O)c1cc(NC(=O)C2CC2c2ccc(Cl)cc2)cc(F)c1-c1ccc(C(F)(F)F)nc1 (racemic) [Example 24, 5-({[2-(4-chlorophenyl)cyclopropyl]carbonyl}amino)-3-fluoro-2-[6-(trifluoromethyl)pyridin-3-yl]benzoic acid] | 1.08 µM
4 | CCC(F)(F)c1ccc(-c2ccc(NC(=O)C3CC3c3cccc(C(F)(F)F)c3)cc2C(=O)O)cn1 (racemic) [Example 21, 2-[6-(1,1-difluoropropyl)pyridin-3-yl]-5-[({2-[3-(trifluoromethyl)phenyl]cyclopropyl}carbonyl)amino]benzoic acid] | 0.403 µM
5 | (+)-5-({[trans-2-(4-chlorophenyl)cyclopropyl]carbonyl}amino)-2-(1-cyclobutyl-1H-pyrazol-4-yl)-3-fluorobenzoic acid [Example 3] | 0.01 µM
6 | O=C(O)c1cc(NC(=O)C2CC2c2ccccc2OC(F)(F)F)ccc1-c1cnn(C2CCC2)c1 (racemic) [Example 10, 2-(1-cyclobutyl-1H-pyrazol-4-yl)-5-[({2-[2-(trifluoromethoxy)phenyl]cyclopropyl}carbonyl)amino]benzoic acid] | 0.353 µM
7 | CC(F)(F)c1ccc(-c2ccc(NC(=O)C3CC3c3ccccc3OC(F)(F)F)cc2C(=O)O)cn1 (racemic) [Example 16, 2-[6-(1,1-difluoroethyl)pyridin-3-yl]-5-[({2-[2-(trifluoromethoxy)phenyl]cyclopropyl}carbonyl)amino]benzoic acid] | 2.57 µM
8 | CCC(F)(F)c1ccc(-c2ccc(NC(=O)C3CC3c3ccccc3OC(F)(F)F)cc2C(=O)O)cn1 (racemic) [Example 20, 2-[6-(1,1-difluoropropyl)pyridin-3-yl]-5-[({2-[2-(trifluoromethoxy)phenyl]cyclopropyl}carbonyl)amino]benzoic acid] | 1.52 µM
9 | Cc1cccc(C2CC2C(=O)Nc2ccc(-c3cnn(C4CCC4)c3)c(C(=O)O)c2)c1 (racemic) [Example 5, 2-(1-cyclobutyl-1H-pyrazol-4-yl)-5-({[2-(3-methylphenyl)cyclopropyl]carbonyl}amino) benzoic acid] | 0.11 µM
10 | CCC(F)(F)c1ccc(-c2ccc(NC(=O)C3CC3c3cccc(Cl)c3)cc2C(=O)O)cn1 (racemic) [Example 22, 5-({[2-(3-chlorophenyl)cyclopropyl]carbonyl}amino)-2-[6-(1,1-difluoropropyl)pyridin-3-yl]benzoic acid] | 1.19 µM
11 | CC(F)(F)c1ccc(-c2ccc(NC(=O)C3CC3c3ccc(Cl)cc3)cc2C(=O)O)cn1 (racemic) [Example 19, 5-({[2-(4-chlorophenyl)cyclopropyl]carbonyl}amino)-2-[6-(1,1-difluoroethyl)pyridin-3-yl]benzoic acid] | 2.49 µM
12 | O=C(O)c1cc(NC(=O)C2CC2c2cccc(C(F)(F)F)c2)ccc1-c1cnn(C2CCC2)c1 (racemic) [Example 12, 2-(1-cyclobutyl-1H-pyrazol-4-yl)-5-[({2-[3-(trifluoromethyl)phenyl]cyclopropyl}carbonyl)amino]benzoic acid] | 0.126 µM
13 | O=C(O)c1cc(NC(=O)C2CC2c2ccc(Cl)cc2)ccc1-c1cnn(C2CCC2)c1 (racemic) [Example 6, 5-({[2-(4-chlorophenyl)cyclopropyl]carbonyl}amino)-2-(1-cyclobutyl-1H-pyrazol-4-yl)benzoic acid] | 0.272 µM
14 | CC(F)(F)c1ccc(-c2ccc(NC(=O)C3CC3c3cccc(Cl)c3)cc2C(=O)O)cn1 (racemic) [Example 17] | 2.47 µM

Continued by falling IC50, values first:

Row | IC50 | Molecule
15 | 2.51 µM | CC(F)(F)c1ccc(-c2ccc(NC(=O)C3CC3c3cccc(C(F)(F)F)c3)cc2C(=O)O)cn1 (racemic) [Example 18, 2-[6-(1,1-difluoroethyl)pyridin-3-yl]-5-[({2-[3-(trifluoromethyl)phenyl]cyclopropyl}carbonyl)amino]bentoic acid]
16 | 1.18 µM | (−)-5-({[trans-2-(4-chlorophenyl)cyclopropyl]carbonyl}amino)-2-(1-cyclobutyl-1H-pyrazol-4-yl)-3-fluorobenzoic acid [Example 4]
17 | 1.13 µM | O=C(O)c1cc(NC(=O)C2CC2c2cccc(Cl)c2)cc(F)c1-c1cnn(C2CCC2)c1 (single isomer, unassigned; (+)) [Example 8, (+)-5-({[2-(3-chlorophenyl)cyclopropyl]carbonyl}amino)-2-(1-cyclobutyl-1H-pyrazol-4-yl)-3-fluorobenzoic acid]
18 | 0.117 µM | O=C(O)c1cc(NC(=O)C2CC2c2ccc(Cl)cc2)ccc1-c1cnn(C2CCC2)c1 (single isomer, unassigned) [Example 7, 5-({[2-(4-chlorophenyl)cyclopropyl]carbonyl}amino)-2-(1-cyclobutyl-1H-pyrazol-4-yl)benzoic acid]
19 | 0.032 µM | O=C(O)c1cc(NC(=O)C2CC2c2cccc(Cl)c2)ccc1-c1cnn(C2CCC2)c1 (single isomer, unassigned) [Example 11, 5-({[2-(3-chlorophenyl)cyclopropyl]carbonyl}amino)-2-(1-cyclobutyl-1H-pyrazol-4-yl)benzoic acid]
20 | 0.017 µM | O=C(O)c1cc(NC(=O)C2CC2c2cccc(Cl)c2)cc(F)c1-c1cnn(C2CCC2)c1 (single isomer, unassigned; (-)) [Example 9, (−)-5-({[2-(3-chlorophenyl)cyclopropyl]carbonyl}amino)-2-(1-cyclobutyl-1H-pyrazol-4-yl)-3-fluorobenzoic acid]

The molecules below were run against T2, native human B1 receptors (Homo sapiens, UniProt P46663) (assay: Calcium flux assay (FLIPR) with IMR-90 human foetal lung fibroblasts after IL-1 induction). Details: IMR-90 fibroblasts induced with human IL-1; 0.1% BSA in assay buffer; agonist Lys-(Des-Arg)-Bradykinin at EC90; read-out: hB1 IC50 IMR90.
T2 construct: which express native human B1 receptors after induction with human IL-1; Coriell Institute; host or cells: IMR-90 human foetal lung fibroblasts, induced with human IL-1
T2 sequence (P46663 1-353): T1 sequence (P46663 1-353)
Assay type: cell-based
Experimental: Calcium Flux Assay (FLIPR) with Human Fibroblasts for Bradykinin B1 Receptor Antagonist (hB1 IMR-90 IC50)
The Calcium flux Assay was carried out utilising IMR-90 human foetal lung fibroblasts (American Type Culture Collection, Rockville, Md.; and Coriell Institute, Camden, N.J.), which express native human B1 receptors after induction with human IL-1[…].
The fibroblasts were cultured in complete growth media comprised of Dulbecco's modified Eagle's medium (DMEM; Sigma) containing 10% foetal bovine serum, 4 mM L-glutamine, and 1% nonessential amino acids. The cells were maintained in a humidified atmosphere with 5% CO2 at 37° C. and were sub-cultured at a ratio of 1:3, every other day.
For the assay, IMR-90 fibroblasts were harvested using TrypLE Express (GIBCO/Invitrogen) and seeded into 384-well plates (Corning Cellbinding Surface, Cat. 3683) at a density of 15000 cells/well. The following day, cells were treated with 0.35 ng/mL human IL-1[…] in 10% FBS/MEM for 3 h to up-regulate B1 receptors. Induced cells were loaded with fluorescent calcium indicator by incubation with 2.5 μM Fluo-4/AM (Invitrogen) at 37° C., 5% CO2 for 2 h in the presence of 2.5 mM probenecid in 1% FBS/MEM. Extracellular dye was removed by washing with assay buffer (2.5 mM probenecid and 0.1% BSA in 20 mM HEPES/HBSS without bicarbonate or phenol red, pH 7.5). Example compounds were assayed at 8 concentrations in triplicate. After addition of example compounds to the cell plate and incubation for 30 min at 28° C., the addition of B1 agonist Lys-(Des-Arg)-Bradykinin (Bachem, Brackley) at a final concentration of EC90 was carried out on the FLIPR instrument while continuously monitoring Ca^2+-dependent fluorescence at 538 nm. A peptide antagonist Lys-(Des-Arg-Leu)-Bradykinin (Bachem, Brackley) at 20 μM was used to determine the full inhibition as control. IC50 values were determined by the same way described for the FLIPR assay with recombinant cells.

Row | IC50 | Molecule
21 | 0.529 µM | CCC(F)(F)c1ccc(-c2ccc(NC(=O)C3CC3c3ccc(Cl)cc3)cc2C(=O)O)cn1 (racemic) [Example 23, 5-({[2-(4-Chlorophenyl)cyclopropyl]carbonyl}amino)-2-[6-(1,1-difluoropropyl)pyridin-3-yl]benzoic acid]
22 | 2.33 µM | O=C(O)c1cc(NC(=O)C2CC2c2ccc(Cl)cc2)cc(F)c1-c1ccc(C(F)(F)F)nc1 (racemic) [Example 24, 5-({[2-(4-chlorophenyl)cyclopropyl]carbonyl}amino)-3-fluoro-2-[6-(trifluoromethyl)pyridin-3-yl]benzoic acid]
23 | 0.051 µM | (+)-5-({[trans-2-(4-chlorophenyl)cyclopropyl]carbonyl}amino)-2-(1-cyclobutyl-1H-pyrazol-4-yl)-3-fluorobenzoic acid [Example 3]
